Data as given in the NIST ThermoML archive (doi:10.1021/acs.jced.8b01135).
Numbers after ± are expanded uncertainties.

Experiment: xn = mol fraction of the nth substance listed
Settings: 102 kPa, Liquid; for speed of sound: Frequency=3 MHz, Single path-length method; for mass density: Vibrating tube method; for viscosity: Concentric cylinders viscometry

CCCCCCCCCCCCC1CCCCC1 [dodecylcyclohexane] + CCCCCCCCCCCC
Settings	mass density [kg/m3]	speed of sound [m/s]	viscosity [mPa·s]
288.15 K, x1 = 0.1005	762.18 ± 0.71	1333.2 ± 0.8	–
288.15 K, x1 = 0.2001	771.24 ± 0.71	1348 ± 0.8	–
288.15 K, x1 = 0.298	779.52 ± 0.71	1361.9 ± 0.8	–
288.15 K, x1 = 0.4031	787.8 ± 0.71	1375.7 ± 0.9	–
288.15 K, x1 = 0.5001	794.95 ± 0.71	1387.9 ± 0.9	–
288.15 K, x1 = 0.6005	801.89 ± 0.71	1400 ± 0.9	–
288.15 K, x1 = 0.7003	808.42 ± 0.71	1411.3 ± 0.9	–
288.15 K, x1 = 0.7997	814.5 ± 0.71	1421.8 ± 0.9	–
288.15 K, x1 = 0.8994	820.23 ± 0.71	1432.1 ± 0.9	–
288.15 K, x1 = 1	825.71 ± 0.71	1441.5 ± 0.9	–
293.15 K, x1 = 0.1005	758.6 ± 0.71	1313.7 ± 0.8	1.82 ± 0.06
293.15 K, x1 = 0.2001	767.69 ± 0.71	1328.7 ± 0.8	2.14 ± 0.02
293.15 K, x1 = 0.298	776 ± 0.71	1342.6 ± 0.8	2.53 ± 0.02
293.15 K, x1 = 0.4031	784.32 ± 0.71	1356.6 ± 0.9	3.03 ± 0.03
293.15 K, x1 = 0.5001	791.49 ± 0.71	1368.9 ± 0.9	3.55 ± 0.03
293.15 K, x1 = 0.6005	798.47 ± 0.71	1381 ± 0.9	4.17 ± 0.04
293.15 K, x1 = 0.7003	805.01 ± 0.71	1392.4 ± 0.9	4.9 ± 0.03
293.15 K, x1 = 0.7997	811.11 ± 0.71	1403.1 ± 0.9	5.73 ± 0.03
293.15 K, x1 = 0.8994	816.87 ± 0.71	1413.3 ± 0.9	6.68 ± 0.04
293.15 K, x1 = 1	822.36 ± 0.71	1422.9 ± 0.9	7.76 ± 0.04
298.15 K, x1 = 0.1005	755.01 ± 0.71	1294.4 ± 0.8	–
298.15 K, x1 = 0.2001	764.14 ± 0.71	1309.5 ± 0.8	–
298.15 K, x1 = 0.298	772.48 ± 0.71	1323.5 ± 0.8	–
298.15 K, x1 = 0.4031	780.84 ± 0.71	1337.6 ± 0.9	–
298.15 K, x1 = 0.5001	788.04 ± 0.71	1350 ± 0.9	–
298.15 K, x1 = 0.6005	795.04 ± 0.71	1362.1 ± 0.9	–
298.15 K, x1 = 0.7003	801.61 ± 0.71	1374 ± 0.9	–
298.15 K, x1 = 0.7997	807.73 ± 0.71	1384.7 ± 0.9	–
298.15 K, x1 = 0.8994	813.51 ± 0.71	1395.1 ± 0.9	–
298.15 K, x1 = 1	819.02 ± 0.71	1404.8 ± 0.9	–
303.15 K, x1 = 0.1005	751.42 ± 0.71	1275.3 ± 0.8	1.53 ± 0.06
303.15 K, x1 = 0.2001	760.58 ± 0.71	1290.5 ± 0.8	1.75 ± 0.02
303.15 K, x1 = 0.298	768.97 ± 0.71	1304.6 ± 0.8	2.05 ± 0.02
303.15 K, x1 = 0.4031	777.36 ± 0.71	1318.8 ± 0.9	2.43 ± 0.02
303.15 K, x1 = 0.5001	784.59 ± 0.71	1331.3 ± 0.9	2.82 ± 0.02
303.15 K, x1 = 0.6005	791.62 ± 0.71	1343.5 ± 0.9	3.28 ± 0.03
303.15 K, x1 = 0.7003	798.2 ± 0.71	1355.4 ± 0.9	3.79 ± 0.03
303.15 K, x1 = 0.7997	804.35 ± 0.71	1366.3 ± 0.9	4.38 ± 0.03
303.15 K, x1 = 0.8994	810.15 ± 0.71	1376.6 ± 0.9	5.05 ± 0.03
303.15 K, x1 = 1	815.68 ± 0.71	1386.3 ± 0.9	5.81 ± 0.03
313.15 K, x1 = 0.1005	744.23 ± 0.71	1237.7 ± 0.8	1.29 ± 0.07
313.15 K, x1 = 0.2001	753.48 ± 0.71	1253.1 ± 0.8	1.46 ± 0.02
313.15 K, x1 = 0.298	761.93 ± 0.71	1267.5 ± 0.8	1.7 ± 0.02
313.15 K, x1 = 0.4031	770.4 ± 0.71	1281.9 ± 0.9	1.99 ± 0.02
313.15 K, x1 = 0.5001	777.69 ± 0.71	1294.6 ± 0.9	2.28 ± 0.02
313.15 K, x1 = 0.6005	784.77 ± 0.71	1307 ± 0.9	2.63 ± 0.02
313.15 K, x1 = 0.7003	791.4 ± 0.71	1319.2 ± 0.9	3.01 ± 0.03
313.15 K, x1 = 0.7997	797.6 ± 0.71	1330.2 ± 0.9	3.45 ± 0.03
313.15 K, x1 = 0.8994	803.45 ± 0.71	1340.7 ± 0.9	3.93 ± 0.03
313.15 K, x1 = 1	809.03 ± 0.71	1350.5 ± 0.9	4.48 ± 0.03
323.15 K, x1 = 0.1005	737.02 ± 0.71	1200.9 ± 0.8	1.09 ± 0.02
323.15 K, x1 = 0.2001	746.35 ± 0.71	1216.6 ± 0.8	1.27 ± 0.02
323.15 K, x1 = 0.298	754.88 ± 0.71	1231.1 ± 0.8	1.43 ± 0.02
323.15 K, x1 = 0.4031	763.43 ± 0.71	1245.9 ± 0.9	1.66 ± 0.02
323.15 K, x1 = 0.5001	770.78 ± 0.71	1258.7 ± 0.9	1.89 ± 0.02
323.15 K, x1 = 0.6005	777.93 ± 0.71	1271.3 ± 0.9	2.16 ± 0.02
323.15 K, x1 = 0.7003	784.61 ± 0.71	1283.6 ± 0.9	2.45 ± 0.02
323.15 K, x1 = 0.7997	790.86 ± 0.71	1294.8 ± 0.9	2.78 ± 0.02
323.15 K, x1 = 0.8994	796.76 ± 0.71	1305.4 ± 0.9	3.14 ± 0.03
323.15 K, x1 = 1	802.38 ± 0.71	1315.4 ± 0.9	3.55 ± 0.03
333.15 K, x1 = 0.1005	729.78 ± 0.71	1165.1 ± 0.8	0.945 ± 0.021
333.15 K, x1 = 0.2001	739.2 ± 0.71	1181 ± 0.8	1.09 ± 0.02
333.15 K, x1 = 0.298	747.81 ± 0.71	1195.8 ± 0.8	1.22 ± 0.02
333.15 K, x1 = 0.4031	756.44 ± 0.71	1210.7 ± 0.9	1.4 ± 0.02
333.15 K, x1 = 0.5001	763.86 ± 0.71	1223.8 ± 0.9	1.59 ± 0.02
333.15 K, x1 = 0.6005	771.08 ± 0.71	1236.5 ± 0.9	1.8 ± 0.02
333.15 K, x1 = 0.7003	777.81 ± 0.71	1248.9 ± 0.9	2.03 ± 0.02
333.15 K, x1 = 0.7997	784.13 ± 0.71	1260.3 ± 0.9	2.29 ± 0.02
333.15 K, x1 = 0.8994	790.08 ± 0.71	1271 ± 0.9	2.57 ± 0.02
333.15 K, x1 = 1	795.75 ± 0.71	1281.4 ± 0.9	2.88 ± 0.03
